Data published in US8470844B2, “Imidazoacridinone derivative compounds and methods for their use” (Technion Research & Development Foundation Limited, priority 2008, dated 2013).

Tests used:
A549 cells = assay: MTT cytotoxicity assay, parental A549 cells; type: cell-based, Human; conditions: 96 hours exposure, mean of at least three experiments
Protocol: (§1) Tissue culture: Human non-small cell lung cancer A549 cells and T-cell leukemia CCRF-CEM cells were grown under monolayer conditions or up to a maximal density of 10^6 cells/ml (for CCRF-CEM cells) in RPMI-1640 medium (GIBCO) supplemented with 10% fetal calf serum, 2 mM glutamine, 100 μg/ml penicillin and 100 μg/ml streptomycin (Biological Industries, Beth-Haemek, Israel) in a humid atmosphere of 5% CO2. Drug resistant A549/K1.5 cells with ABCG2 overexpression were maintained under a continuous drug selection with 1.5 μM C-1305. Bram, E. E., et al., (2007) Biochem Pharmacol 74(1), 41-53.
(§2) Cytotoxicity and growth inhibition assays: The cytotoxic activity of the various IA antitumor agents was determined using the MTT assay. Poindessous, V., et al., (2003) Clin Cancer Res 9(7), 2817-2825.
(§3) Exponentially growing cells were seeded at 5×10^3 cells/well in 24-well plates (2 ml medium/well). Following an overnight incubation, cells were exposed to different drug concentrations for 96 hours. Cellular viability was determined by adding the tetrazolium salt MTT for 4 h at 37° C., followed by solubilization of the intracellular precipitated formazan in 1 ml DMSO and absorbance was determined by a microplate reader (ASYS Hitech GmbH, Austria). Drug concentrations required to inhibit cell growth by 50% (IC50) compared with untreated controls were determined from the curves of survival versus drug concentrations using the SlideWrite software (Advanced Graphics Software, Inc., Encinitas, Calif.). Resistance folds (RF) were calculated by dividing the IC50 value of the resistant cells by that of the parental cell line. Values presented are means of at least three independent experiments, each performed in duplicates.

A549/K1.5 cells = assay: MTT cytotoxicity assay, ABCG2-overexpressing A549/K1.5 cells; type: cell-based, Human; conditions: for IC50: ABCG2-overexpressing A549/K1.5 cells, 96 hours exposure, MTT; for RF (resistance fold): IC50 of A549/K1.5 cells divided by IC50 of parental A549 cells; for hypersensitivity of A549/K1.5 cells / resistance of A549/K1.5 cells (in words): versus parental A549 cells
Protocol: as §1, §2, §3
Quantitative evaluation of ABCG2 interaction with various IA derivatives: The extent of ABCG2-mediated resistance was expressed using the Resistance Fold (RF) parameter representing the ratio between the IC50 values of the resistant cells and parental cells. Likewise, ABCG2-dependent differential accumulation of IAs in ABCG2-overexpressing A549/K1.5 cells was compared using the ratio of IA accumulation in the presence or absence of the potent ABCG2 inhibitor FTC. This was termed the FTC-dependent Accumulation Fold (AF) and was determined for each IA at a constant IA concentration of 10 μM.

ABCG2 (A549/K1.5 cells) [1] = biological target: T1, ABCG2 (A549/K1.5 cells) (Homo sapiens, UniProt Q9UNQ0); assay: Fluorescence microscopy of nuclear accumulation of IAs in A549/K1.5 cells; type: cell-based; conditions: 10 μM IA, 1 hr, presence or absence of 5 μM FTC
T1 construct: Drug resistant A549/K1.5 cells with ABCG2 overexpression were maintained under a continuous drug selection with 1.5 μM C-1305; endogenous in cells; host or cells: A549/K1.5 (C-1305-selected subline of human non-small cell lung cancer A549)
T1 sequence (Q9UNQ0 1-655): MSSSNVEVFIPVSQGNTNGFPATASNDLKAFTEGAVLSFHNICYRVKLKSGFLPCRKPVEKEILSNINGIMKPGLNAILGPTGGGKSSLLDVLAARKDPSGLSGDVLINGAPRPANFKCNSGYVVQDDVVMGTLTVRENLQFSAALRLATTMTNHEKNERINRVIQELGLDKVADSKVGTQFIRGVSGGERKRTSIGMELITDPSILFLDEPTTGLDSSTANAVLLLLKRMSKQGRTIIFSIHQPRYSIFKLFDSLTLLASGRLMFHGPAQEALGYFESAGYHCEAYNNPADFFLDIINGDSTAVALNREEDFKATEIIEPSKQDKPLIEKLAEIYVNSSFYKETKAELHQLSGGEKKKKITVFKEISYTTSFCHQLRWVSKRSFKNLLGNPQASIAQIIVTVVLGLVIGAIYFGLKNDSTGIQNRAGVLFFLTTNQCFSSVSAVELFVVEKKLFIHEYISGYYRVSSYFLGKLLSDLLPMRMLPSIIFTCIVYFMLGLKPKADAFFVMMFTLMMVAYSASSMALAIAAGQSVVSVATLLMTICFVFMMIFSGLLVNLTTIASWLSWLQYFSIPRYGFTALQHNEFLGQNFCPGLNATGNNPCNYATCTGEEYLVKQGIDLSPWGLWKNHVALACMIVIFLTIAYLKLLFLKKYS
Protocol: In immunofluorescence microscopy of plasma membrane targeting of ABCG2 and nuclear accumulation of IAs, cells (1×10^4/well) were seeded in 24-well plates (1 ml medium/well) and incubated for 2 days, following which some wells were supplemented with 10 μM IA-containing medium±5 μM FTC and incubated for 1 h at 37° C. Cells were then washed twice with ice-cold PBS containing 0.1% BSA and blocked for 10 min at 4° C. with PBS containing 5% BSA. Cells were then washed once with ice-cold PBS containing 0.1% BSA and incubated for 30 min at 4° C. with a Phycoerythrin-conjugated, affinity-purified 5D3 mouse anti-human ABCG2 monoclonal antibody (1:100; eBioscience). Unspecific fluorescence was determined using cells that were incubated only with a secondary Phycoerythrin (PE)-conjugated goat anti-mouse IgG (1:200; Jackson Immunoresearch Labs, West Grove, Pa.). Cells were then washed twice and subjected to fluorescence microscopy using a DMIRE2 fluorescence microscope equipped with a DC300FX camera (Leica Microsystems, Wetzlar, Germany).
In order to exclude the possibility that differential subcellular accumulation of IA derivatives is the basis of the observed difference in cytotoxicity and cellular fluorescence, A549/K1.5 cells were incubated with 10 μM of selected IA derivatives from both group A and B in the presence or absence of FTC and subjected to fluorescence microscopy.

ABCG2 (A549/K1.5 cells) [2] = biological target: T1, ABCG2 (A549/K1.5 cells); assay: Flow cytometric IA accumulation in A549/K1.5 cells with or without fumitremorgin C; type: cell-based
Protocol: In this assay, one ml aliquots of A549/K1.5 or CCRF-CEM cell suspensions (1×10^6 cells/ml) in growth medium containing 20 mM Hepes at pH 7.3 were distributed into 1.5 ml polypropylene Eppendorf test tubes. […] Rabindran, S. […] Alternatively, in time-course experiments, IA derivatives at a constant concentration of 10 μM were added to a CCRF-CEM cell suspension incubated at 37° C., and 1 ml aliquots were removed at variable time points up to 1 hour. Following incubation, test tubes were transferred to ice and centrifuged at 4° C. Cells were then washed twice and re-suspended in ice-cold PBS containing 1% fetal calf serum and kept in the dark at 4° C. until analysis. […] Quantitative evaluation of ABCG2 interaction with various IA derivatives: The extent of ABCG2-mediated resistance was expressed using the Resistance Fold (RF) parameter representing the ratio between the IC50 values of the resistant cells and parental cells.

Row | SMILES | IC50 (A549 cells) [µM] | IC50 (A549/K1.5 cells) [µM] | RF (resistance fold) (A549/K1.5 cells) | hypersensitivity of A549/K1.5 cells (A549/K1.5 cells) [fold] | nuclear accumulation (fluorescence microscopy) (ABCG2 (A549/K1.5 cells) [1]) | ABCG2-mediated extrusion / interaction with ABCG2 (in words) (ABCG2 (A549/K1.5 cells) [2]) | resistance of A549/K1.5 cells (in words) (A549/K1.5 cells)
1 | CN(C)CCNc1ccc2ncn3c4ccccc4c(=O)c1c23.Cl [C-1176] | 2.35 ± 0.75 | 1.21 ± 0.65 | 0.51 |  |  |  | 
2 | CN(C)CCCNc1ccc2ncn3c4ccccc4c(=O)c1c23.Cl [C-1212] | 1.89 ± 0.42 | 1.93 ± 0.84 | 1.02 |  |  |  | 
3 | Cc1nc2ccc(NCCN(C)C)c3c(=O)c4ccccc4n1c23.Cl [C-1213] | 12.3 ± 2.5 | 18.3 ± 2.4 | 1.49 |  |  |  | 
4 | CN(C)CCCCCNc1ccc2ncn3c4ccccc4c(=O)c1c23.Cl [C-1266] | 2.81 ± 0.27 | 0.56 ± 0.002 | 0.20 | 5.0 | comparable and significant nuclear accumulation regardless of ABCG2 inhibition by FTC |  | 
5 | CCCCN(CCCC)CCNc1ccc2nc(C)n3c4ccc(O)cc4c(=O)c1c23.Cl [C-1315] | 1.69 ± 0.26 | 3.46 ± 0.16 | 2.05 |  |  | failed to display any significant interaction with ABCG2 | 
6 | CCN(CC)CCNc1ccc2ncn3c4ccc(OC)cc4c(=O)c1c23.Cl [C-1330] | 2.16 ± 0.27 | 0.97 ± 0.08 | 0.45 | 2.2 |  |  | 
7 | CCN(CC)CCCNc1ccc2ncn3c4ccc(O)cc4c(=O)c1c23.Cl [C-1335] | 0.09 ± 0.004 | 1 ± 0.25 | 11.10 |  |  |  | prominent resistance
8 | CN(C)CCCNc1ccc2ncn3c4ccc(O)cc4c(=O)c1c23.Cl [C-1371] | 0.04 ± 0.006 | 0.7 ± 0.03 | 17.90 |  |  |  | prominent resistance
9 | COc1ccc2c(c1)c(=O)c1c(NCCCN(C)C)ccc3nc(C)n2c31.Cl [C-1375] | 1.3 ± 0.06 | 1.25 ± 0.11 | 0.96 |  |  |  | 
10 | CCN(CC)CCCNc1ccc2nc(C)n3c4ccc(OC)cc4c(=O)c1c23.Cl [C-1379] | 1.07 ± 0.03 | 0.68 ± 0.06 | 0.63 |  |  |  | 
11 | CCN(CC)CCNc1ccc2ncn3c4ccccc4c(=O)c1c23.Cl [C-1415] | 2.7 ± 0.21 | 2.38 ± 0.12 | 0.88 |  |  |  | 
12 | CCN(CC)CCNc1ccc2ncn3c4cc(O)ccc4c(=O)c1c23.Cl [C-1419] | 2.92 ± 0.42 | 31.3 ± 2.55 | 10.70 |  |  |  | prominent resistance
13 | CN(C)CCCCCNc1ccc2ncn3c4ccc(O)cc4c(=O)c1c23.Cl [C-1492] | 1.69 ± 0.12 | 17.2 ± 1.95 | 10.10 |  |  |  | prominent resistance
14 | CCN(CC)CCNc1ccc2ncn3c4c(OC)ccc(OC)c4c(=O)c1c23.Cl [C-1503] | 3.5 ± 0.64 | 3.09 ± 0.74 | 0.88 |  |  |  | 
15 | CCN(CC)CCNc1ccc2ncn3c4ccc(C)cc4c(=O)c1c23.Cl [C-1554] | 2.02 ± 0.33 | 3.07 ± 0.8 | 1.51 |  |  |  | 
16 | CCN(CC)CCNc1ccc2ncn3c4ccc(C(C)(C)C)cc4c(=O)c1c23.Cl [C-1558] | 1.48 ± 0.25 | 2.51 ± 0.17 | 1.70 |  |  |  | 
17 | CN(C)CCNc1ccc2ncn3c4ccc(O)cc4c(=O)c1c23.Cl [C-1584] | 0.01 ± 0.002 | 0.25 ± 0.01 | 19.20 |  |  |  | prominent resistance
18 | CCN(CC)CCNc1ccc2ncn3c4c(O)cccc4c(=O)c1c23.Cl [C-1633] | 2.26 ± 0.33 | 9.83 ± 1.44 | 4.35 |  |  |  | prominent resistance
19 | CCN(CC)CCCCCCCCCNc1ccc2ncn3c4ccc(O)cc4c(=O)c1c23.Cl [C-2018] | 1.54 ± 0.31 | 2.13 ± 0.62 | 1.38 |  |  | failed to display any significant interaction with ABCG2 | 
